Reference: PubChem BioAssay (NCI)
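Protocol summary: plate cells (96-well), add compound at 5 concentrations, incubate 48 h, interpolate endpoints linearly. Here, GI50 denotes the concentration required for 50% inhibition of growth. TGI: total growth inhibition.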

What was measured:
Experiment in all cases: NCI-60 cell line screen, 48 h
[1] = tested on: OVCAR-3 ovarian
[2] = tested on: CCRF-CEM leukemia
[3] = tested on: NCI-H460 lung
[4] = tested on: SF-539 CNS
[5] = tested on: EKVX NSCLC
[6] = tested on: HL-60(TB) leukemia
[7] = tested on: MDA-MB-435
[8] = tested on: NCI/ADR-RES ovarian
[9] = tested on: ACHN renal
[10] = tested on: SN12C renal

Structure (SMILES) | GI50 [1] [µM] | TGI [1] [µM] | GI50 [2] [µM] | TGI [2] [µM] | GI50 [3] [µM] | TGI [3] [µM] | GI50 [4] [µM] | TGI [4] [µM] | GI50 [5] [µM] | TGI [5] [µM] | GI50 [6] [µM] | TGI [6] [µM] | GI50 [7] [µM] | TGI [7] [µM] | GI50 [8] [µM] | TGI [8] [µM] | GI50 [9] [µM] | TGI [9] [µM] | GI50 [10] [µM] | TGI [10] [µM]
CN1CCN(Cc2ccc(NC(=O)c3[nH]ncc3Nc3ncnc4[nH]ccc34)cc2)CC1 | 0.255 | 0.797 | 0.254 | 5.68 | 0.328 | 4.67 | 0.133 | 0.429 | 0.368 | 2.64 | 0.27 | 0.626 | 0.298 | 1.71 | 7.16 | > 100 | 0.322 | 10 | 0.333 | > 100
Cc1cc(=O)[nH]c(N/N=C/c2ccccc2O)n1 | 4.15 | > 100 | 4.02 | > 100 | 4.72 | > 100 | 7.06 | > 100 |  |  | 4.26 | 50.1 | 18.7 | > 100 | 3.52 | > 100 | 7.39 | > 100 | 18.7 | > 100
O=C1NC(=O)C(=Cc2cn(Cc3ccccc3)c3ccccc23)C(=O)N1 | 5.75 | 19.4 | 20.5 | > 67.2 | 0.264 | 13.4 | 34.3 | > 100 | 21.3 | > 63.5 | 21.4 | 81.6 | 17.9 | 42.3 | 18.4 | 50.3 | 19.8 | 53.9 | 13.5 | 40
Cc1nc(NS(=O)(=O)c2ccc(NCN3C(=O)c4ccccc4C3=O)cc2)oc1C | > 100 | > 100 | 0.0113 | 0.0422 | > 100 | > 100 | > 100 | > 100 | > 100 | > 100 | > 100 | > 100 | > 100 | > 100 | > 100 | > 100 | > 100 | > 100 | > 100 | > 100
CCCCC#Cc1c(I)n(C2OC(CO[Si](C)(C)C(C)(C)C)C3OC(C)(C)OC32)c(=O)n(C(=O)c2ccccc2)c1=O (stereo not drawn) | 1.47 | 2.82 | 13.4 | 33.4 | 10.9 | 27.4 | 3.54 | 12.8 | 18.5 | 38.9 | 10.1 | 28.6 | 1.77 | 3.87 | 18.5 | 49.3 | 3 | > 100 | 19.3 | 45.4
N#CC1=C(N)NC(N2CCOCC2)=NC12Nc1ccccc1O2 (stereo not drawn) | 25.1 | 84.8 | 44 | > 100 | 46.1 | > 100 | 78.7 | > 100 | > 100 | > 100 | 48.3 | > 100 | 23.5 | 70.2 | 34.2 | > 100 | 34 | > 100 | 96.4 | > 100
COc1cc(C2c3cc4c(cc3OC(O)C2C)OCO4)cc(OC)c1OC (stereo not drawn) |  | 5.25 |  |  |  | > 51.3 |  | 0.92 |  | > 100 |  | 0.503 |  | 0.156 |  | 0.504 |  | > 88.1 |  | > 65
COc1ccc(C2NN=C3c4ccccc4CCC32)cc1 (stereo not drawn) | 3.38 | 14.9 | 4.64 | > 100 | 4.86 | 71.3 | 6.73 | 28.8 | 1.4 | 29.3 | 1.92 | 5.27 | 1.57 | 3.62 | 3.99 | 38.3 | 24.5 | > 100 | 15.4 | 79.5
COc1c(OC)c(OC)c2c(=O)cc(-c3ccc(OC(C)C)cc3)oc2c1OC |  | 44.6 |  | > 68.5 |  | > 56.6 |  | 51.2 |  | > 54.9 |  | 13 |  | > 53.5 |  | 61.6 |  | > 55.8 |  | > 53.4
CCCCCCCCCCCNC=O |  | > 100 |  | > 100 |  | > 100 |  | > 100 |  | > 100 |  | 39.7 |  | > 100 |  | 96.6 |  | > 100 |  | > 100
COc1cc(Cl)c(CC(=O)c2c[nH]c3ccccc23)cc1OC |  | > 100 |  | > 57.5 |  | > 100 |  | 19.4 |  | > 100 |  | > 67.3 |  | > 100 |  | > 100 |  | > 100 |  | > 100
COC1=C(OC)C(=O)C(C/C=C(\C)CC/C=C(\C)CC/C=C(\C)CC/C=C(\C)CC/C=C(\C)CC/C=C(\C)CC/C=C(\C)CC/C=C(\C)CC/C=C(\C)CCC=C(C)C)=C(C)C1=O | > 100 | > 100 | > 100 | > 100 | > 100 | > 100 | > 100 | > 100 | > 100 | > 100 | > 100 | > 100 | > 100 | > 100 | > 100 | > 100 | > 100 | > 100 | > 100 | > 100
Cc1ccc(S(=O)(=O)n2cc([C@@]3(O)C[C@H](CSC#N)OC3=O)c3ccccc32)cc1 | 8.81 | 21 | 3.17 | 25.2 | 9.19 | 23.9 | 4.57 | 16.2 | > 100 | > 100 | 3.5 | 12.2 | 6.78 | 24.6 | 13.5 | 38.8 | 11.2 | 27.1 | 7.97 | 24.9
COc1cc(OC)c2c(=O)cc(-c3ccccc3OCc3ccccc3)oc2c1OC | 4.15 | 16.5 | 3.18 | 67.7 | 5.42 | > 100 | 12.4 | 40 | 5.54 | 91.2 | > 100 | > 100 | 2.68 | 7.01 | 2.96 | 18.6 | 6.19 | > 100 | 20.4 | > 100
CC1=C(CO)C(=O)O[C@@H]([C@@H](C)[C@H]2CC[C@H]3[C@@H]4C[C@H]5O[C@]56[C@@H](O)C=CC(=O)[C@]6(C)[C@H]4CC[C@]23C)C1 |  | 0.792 |  |  |  | 5.11 |  | 2.3 | 0.434 | 1.45 |  | 0.821 | 0.252 | 0.976 | 0.821 | 11.2 |  | 2.02 | 0.463 | 1.78
Cc1nn(C)c2ncnc(N/N=C/c3cccc(O)c3O)c12 | 0.356 | > 100 | 0.179 | > 52.8 | 0.431 | > 39.7 | 0.371 | 7.1 | 2.78 | > 100 | 0.322 | 1.43 | 0.609 | > 100 | 0.336 | > 55.8 | 0.338 | > 32.3 | 0.481 | > 100
CC(C)=Cc1cc(CCC/C(C)=C/Cc2c(O)cc(C)c(C(=O)O)c2O)co1 |  | > 100 |  | > 100 |  | > 100 |  | > 100 |  | > 100 |  |  |  | > 100 |  | > 100 |  | > 100 |  | > 100
O=C1CC(c2cccc(Cl)c2)Oc2ccccc21 (stereo not drawn) |  |  |  | 48.4 |  | 42.1 |  | 36.3 |  | 43.7 |  | 57.1 |  | 38.1 |  | 48.9 |  | 31.7 |  | 
CCOC(=O)c1c(-c2ccccc2)[n+](=O)c2cc(F)c(F)cc2n1[O-] | 1.23 | 2.61 |  |  |  |  | 1.95 | 3.68 | 1.73 | 3.47 | 0.717 | 3.77 | 1.93 | 3.6 | 0.924 | 2.66 | 1.38 | 2.8 |  | 
CC(C)C[C@H](NC(=O)Cn1cccc(CNC(=O)c2ccccc2)c1=O)B(O)O | 0.214 | 0.674 | 0.374 | > 20.1 | 2.65 | 15.8 | 0.133 | 0.454 |  |  | 0.653 | > 100 | 0.158 | 0.355 | > 69.1 | > 100 | 0.626 | > 100 | 0.811 | 11.3
C=CC1C(CC2OC(CO)C(O)C(O)C2O)OC=C2C(=O)OCCC21O (stereo not drawn) | 12.4 | 27.6 | 5.32 | 28.9 | 28.4 | > 100 |  |  | 39.8 | > 100 |  |  | 13.7 | 44.5 | 24 | > 100 | 29.8 | > 100 | 20.8 | 75.6
NC1=NC(SCc2ccccc2CCl)c2ncn(Cc3ccccc3CCl)c2N1 (stereo not drawn) | 1.32 | 2.99 | 1.79 | 5.68 | 2.53 | 6.69 | 2.92 | 10.4 | 3.14 | 11.6 |  |  | 1.53 | 3.28 | 1.81 | 4.3 | 2.07 | 5.45 | 2.76 | 9.85
CN1CCN(C(=O)c2ccc(NC(=O)Nc3ccc(-c4nc(N5CCOCC5)c5cccn5n4)cc3)cc2)CC1 |  |  | 0.0473 | 5.67 | 0.0498 | 12 | 0.0481 | 0.393 | 0.042 | 0.703 | 0.101 | 5.21 | 0.032 | 0.41 | 8.06 | > 81.6 | 0.279 | 12.8 | 0.0331 | 11.8
C=C(C(=O)OC)[C@@H]1CC2OC1C(=O)C(C)CCC/C(C)=C/CC[C@@]2(C)O (stereo partly drawn) | 15.9 | 48.4 | 11 | 36.1 | 50.5 | > 100 | 18.4 | 36.4 | 63.2 | > 100 |  |  | 25.9 | 79.4 | 28.8 | 86.4 | 18.6 | 42.6 | 31.3 | 91.5
N#C/C(=C/N1CCN(C(=O)c2ccco2)C1=S)C(=O)Nc1ccc(Cl)cc1 | 15.5 | > 50 | 22.5 | > 50 | 19.9 | > 50 |  |  |  |  | 10.5 | 28.7 | 15.2 | > 50 | 28.1 | > 50 | 15.3 | 42.2 | 11.8 | 37.2
Nc1c(C(=O)c2cccc(C(O)CO)c2)cnn1-c1ccc(F)cc1 (stereo not drawn) | > 25 | > 25 | > 25 | > 25 | > 25 | > 25 | > 25 | > 25 |  |  | > 12.9 | > 25 | > 25 | > 25 | > 25 | > 25 | > 25 | > 25 | > 25 | > 25
COc1ccc2c(c1O)[C@@]13CCCC=C1[C@@H](C2)[N+](C)(C)CC3 |  | > 100 |  | > 100 |  | > 100 |  |  |  | > 100 |  | > 100 |  | > 100 |  | > 100 |  | > 100 |  | > 100
COc1cc(C)cc(C(=O)/C=C/c2ccccc2)c1O |  | 47.8 |  | 84.1 |  | 44.7 |  |  |  | 47.8 |  | > 100 |  | 83.6 |  | 52 |  | 33.1 |  | 34
C1CSC[C@H]2COC[C@@H](CSCCS1)S2 |  | > 100 |  | > 100 |  | > 100 |  | > 100 |  | > 100 |  | > 100 |  | > 100 |  | > 100 |  |  |  | > 100
CC(C)[P+](c1ccccc1)(c1ccccc1)c1ccccc1 | 4.49 | > 100 | 4.2 | > 100 | 6.92 | > 100 | 15.6 | > 100 |  |  | 2.24 | 7.5 | 2.65 | 25.3 | > 100 | > 100 | 86.8 | > 100 | 11.5 | > 100
